Data reported in paper PMC10235985 (Proceedings of the National Academy of Sciences of the …, 2023).
One block for each molecule: values may come before it.

Experiments:
[1] = system: hNK1R-407, hNK1R-311, and wild-type mice; assay: SP-evoked mechanical allodynia; format: in vivo, mouse; conditions: AP 100 nM/5 µL coadministered with SP 1 µg/5 µL intrathecal; hNK1R-407, hNK1R-311, wild-type mice
[2] = system: spinal neurons in NK1R-407 mice; set-up: species or system mouse; conditions: spinal cord slices
[3] = system: hNK1R-407 mice; assay: Capsaicin-evoked mechanical allodynia; format: in vivo, mouse; conditions: 5 µL intrathecal; for duration of inhibition of capsaicin-evoked mechanical allodynia: 100 nM; for effect of higher dose on magnitude or duration of antinociception: 300 nM
[4] = biological target: T1, Nluc-NK1R (human NK1R) (Homo sapiens, UniProt P25103); assay: NanoBRET saturation binding of TAMRA-NT analogs, membranes from HEK293T cells; conditions: read-out: Kd for Nluc-NK1R; pH 7.4, saturation binding
[5] = biological target: human NK1R-NP (Homo sapiens, UniProt P25103); assay: NanoBiT-BRET; format: cell-based; conditions: NT 30 min, n = 5
[6] = biological target: T2, NK1R (Homo sapiens, UniProt P25103); assay: cell-based
[7] = biological target: T1, Nluc-NK1R (human NK1R); assay: biochemical; format: binding
[8] = pKa measurement by potentiometric titration; format: physicochemical; conditions: 67% methanol aqueous solution
[9] = biological target: T2, NK1R; assay: ebBRET of SP-evoked mGαsq recruitment to early endosomes; format: cell-based; conditions: antagonist 10 µM added after 5 min SP; one phase decay
[10] = logD experiments, distribution between octanol and aqueous buffer; format: physicochemical; conditions: octanol/phosphate buffer, pH 7
[11] = biological target: T2, NK1R; assay: Nuclear ERK activity, Nuc-EKAR FRET biosensor, HEK293T cells with human NK1R; format: cell-based

T1 sequence (P25103 whole entry): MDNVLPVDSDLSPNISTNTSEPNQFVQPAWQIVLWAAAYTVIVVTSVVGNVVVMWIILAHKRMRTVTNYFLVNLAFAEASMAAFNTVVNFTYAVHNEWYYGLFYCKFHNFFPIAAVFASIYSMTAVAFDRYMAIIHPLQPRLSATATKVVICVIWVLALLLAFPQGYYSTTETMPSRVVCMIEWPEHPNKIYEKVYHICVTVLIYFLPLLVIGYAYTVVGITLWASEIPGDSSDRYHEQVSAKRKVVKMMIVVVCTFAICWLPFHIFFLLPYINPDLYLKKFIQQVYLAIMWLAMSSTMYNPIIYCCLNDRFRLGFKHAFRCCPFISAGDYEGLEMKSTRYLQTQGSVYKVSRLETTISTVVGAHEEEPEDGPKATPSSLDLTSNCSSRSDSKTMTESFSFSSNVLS
T2 sequence (P25103 whole entry): as above
Chain of human NK1R-NP (P25103 whole entry): as above

Molecule: C[C@@H](O[C@H]1OCCN(Cc2n[nH]c(=O)[nH]2)[C@H]1c1ccc(F)cc1)c1cc(C(F)(F)F)cc(C(F)(F)F)c1 [AP, aprepitant]
- effect on SP-evoked mechanical allodynia [1]: abolished
- effect on SP-induced excitation of spinal neurons [2]: prevented SP-induced excitation
- duration of inhibition of capsaicin-evoked mechanical allodynia [3]: 2 h
- effect of higher dose on magnitude or duration of antinociception [3]: did not further increase the magnitude or duration of the antinociception

Molecule: PS68: fluorescent tetramethylrhodamine (TAMRA) derivative of NT, also referred to as TAMRA-NT
- Kd [4]: 1.9 ± 0.39 nM

- Kd [4]: 0.81 ± 0.065 nM
Molecule: PS69: fluorescent TAMRA derivative of NT used as tracer in competition binding

- IC50 ([5]; pIC50, inhibition of mGαsq recruitment to NK1R-NP at the plasma membrane (CAAX), CAAX, plasma membrane): 6.46 nM
- IC50 ([5]; pIC50, inhibition of mGαsq recruitment to NK1R-NP in early endosomes (FYVE), FYVE, early endosomes): 20 nM
- IC50 [6]: 178 nM
- Ki ([7]; Binding affinity BRET (Nluc-NK1R) pKi at pH 6.0): 0.851 nM
- Ki ([7]; Ki (pH 7.4), pH 7.4, tracer PS69): 0.91 nM
- pKa [8]: 6.81
- Kinetics of inhibition Endosomal miniGαsq (ebBRET) k for 10 µM [9]: 0.14 ± 0.02 (9) min^−1
- logD [10]: 4.97
- IC50 [11]: 257 nM
Molecule: Cc1ccccc1-c1cc(N2CCN(C)CC2)ncc1N(C)C(=O)C(C)(C)c1cc(C(F)(F)F)cc(C(F)(F)F)c1 [NT, netupitant]
- duration of inhibition of capsaicin-evoked mechanical allodynia [3]: 4 h
- effect of higher dose on magnitude or duration of antinociception [3]: did not further increase the magnitude or duration of the antinociception
